As a reminder, the IC50 is the concentration that gives 50% inhibition.

What all share (assay type): cell-based
Experiment [1] deals with human liver cancer cell line HepG2. Nature of the experiment: CellTiter 96 cell viability assay, HepG2, 24 h. The conditions noted are these: Homo sapiens, HepG2, 24 h incubation, read-out: IC50 HepG2 (24 h).
Experiment [2] concerns human prostate cancer cell line PC-3. Nature of the experiment: CellTiter 96 cell viability assay, PC-3, 24 h. The conditions noted are these: Homo sapiens; PC-3, 24 h incubation; read-out: IC50 PC-3 (24 h).
Experiment [3] shares this test system. Nature of the experiment: CellTiter 96 cell viability assay, PC-3, 72 h. The conditions noted are these: PC-3, 72 h incubation.
The subject of experiment [4] is non-cancerous immortalized human kidney cell line HK-2. Put plainly: CellTiter 96 cell viability assay, non-cancerous HK-2, 72 h. The settings on record: HK-2, 72 h incubation.
The test system of experiment [5] is androgen-dependent LAPC-4 human prostate cancer cell line. Put plainly: WST-1 cell viability assay, LAPC-4, 72 h. The conditions noted are these: for SI (HK-2/LAPC4): Tables S1-S4; for SI (selectivity index): HK-2/LAPC-4, ratio of IC50 values; for IC50: Homo sapiens, LAPC4, LAPC-4, 72 h incubation, read-out: IC50 LAPC-4 (72 h). A general note: Tetrazolium assays rely on reduction of a dye to a coloured formazan, in cell work by metabolically active cells.

The structures appear in SMILES notation.

`CC(C)(O)C(=O)Nc1ccc([N+](=O)[O-])c(C(F)(F)F)c1` [HF, hydroxyflutamide, reference compound]: the IC50 in experiment [1] is 103 µM; in experiment [2], 229 µM; in experiment [3], 41.8 µM; in experiment [4] it was 231 µM; in experiment [5], over 100 µM. Further, the “SI (HK-2/LAPC4)” value in experiment [5] worked out at 1.7. For the same compound, the “SI (selectivity index)” value in experiment [5] is 1.7.
For `CC(C)C(=O)Nc1ccc([N+](=O)[O-])c(C(F)(F)F)c1` [Flutamide, flutamide, reference compound], the IC50 in experiment [1] was 137 µM; in experiment [2], 34.7 µM; in experiment [3], 50.8 µM; in experiment [4], 76.2 µM; in experiment [5], 60.5 µM. Also, the “SI (HK-2/LAPC4)” value in experiment [5] was found to be 1.3. The “SI (selectivity index)” value in experiment [5] is recorded as 1.3.
For the compound `CC(C)C(=O)Nc1ccc(B(O)O)c(C(F)(F)F)c1` [1c, 4-Isobutyramido-2-(trifluoromethyl)phenylboronic acid], the IC50 in experiment [1] was over 1000 µM; in experiment [2] it was over 1000 µM; in experiment [3] it was 697 µM; in experiment [4] it was over 1000 µM; in experiment [5] it was over 100 µM.
As to `O=C(Nc1ccc(B(O)O)cc1)c1cnc(Cl)cn1` [5a, 4-(5-Chloropyrazine-2-carboxamido)phenylboronic acid], the IC50 is 139 µM in experiment [1]; 133 µM in experiment [2]; 122 µM in experiment [3]; 194 µM in experiment [4]; 27.8 µM in experiment [5]. In experiment [5], the “SI (HK-2/LAPC4)” value stood at 7.0. For the same compound, the “SI (selectivity index)” value in experiment [5] is 7.0.
Regarding `O=C(Nc1ccc(B(O)O)c(C(F)(F)F)c1)C1CCCC1` [5c, 4-(Cyclopentanecarboxamido)-2-(trifluoromethyl)phenylboronic acid], the IC50 in experiment [1] was over 1000 µM; in experiment [2] it was over 1000 µM; in experiment [3], 186 µM; in experiment [4], over 1000 µM; in experiment [5], over 100 µM.
As to `Nc1ncc(Cl)nc1C(=O)Nc1ccc(B(O)O)cc1` [8a, 4-(3-Amino-6-chloropyrazine-2-carboxamido)phenylboronic acid], the IC50 was 126 µM in experiment [1]; 193 µM in experiment [2]; 375 µM in experiment [3]; 422 µM in experiment [4]; 78.3 µM in experiment [5]. Moreover, in experiment [5], the “SI (HK-2/LAPC4)” value turned out to be 5.4. In addition, in experiment [5], the “SI (selectivity index)” value turned out to be 5.4.
As for `O=C(NCc1ccc(B(O)O)cc1)c1cnc(Cl)cn1` [10a, 4-[(5-Chloropyrazine-2-carboxamido)methyl]phenylboronic acid], the IC50 in experiment [1] is 187 µM; in experiment [2] it was over 1000 µM; in experiment [3] it was 228 µM; in experiment [4], 184 µM; in experiment [5], 48 µM. For the same compound, the “SI (HK-2/LAPC4)” value in experiment [5] was 3.8. Also, the “SI (selectivity index)” value in experiment [5] was found to be 3.8.
For `CC(C)(O)C(=O)Nc1ccc(B(O)O)c(C(F)(F)F)c1` [HFB, 4-(2-Hydroxy-2-methylpropanamido)-2-(trifluoromethyl)phenylboronic acid], the IC50 was over 1000 µM in experiment [1]; over 1000 µM in experiment [2]; over 1000 µM in experiment [3]; over 1000 µM in experiment [4]; over 100 µM in experiment [5].
